# Data as given in ChEMBL document CHEMBL1122562, “Synthesis of 3-hydroxy-2- and -4-pyridone nucleosides as potential antitumor agents” (1984).
# Calls of active or inactive are those of the source. No cut-off for these calls is given here.
# How the values were obtained:
# P388 [1] = experiment: Compound was tested in vitro for its inhibitory activity against murine P-388 leukemia at doses ranging from 25 to 400 mg/kg qd 1-5 minimally active T/Cvalues of 125 in this tumor system; format: functional, organism-based; details: Mus musculus
# P388 [2] = experiment: Compound was tested in vitro for its inhibitory activity against murine P-388 leukemia; format: functional; details: Mus musculus, read-out: ID50 (the source's name)
# P388 [3] = experiment: Compound was tested in vitro for its inhibitory activity against murine P-388 leukemia at doses ranging from 25 to 400 mg/kg qd 1-5; minimally active T/Cvalues of 125 in this tumor system; format: functional, organism-based; details: Mus musculus
Structure (SMILES),IC50 (P388 [2]),ID50 (P388 [3]),other results
O=c1c(O)cccn1[C@@H]1O[C@H](CO)[C@@H](O)[C@@H]1O,–,–,ID50 (P388 [1]): inactive
O=c1c(O)cccn1[C@@H]1O[C@H](CO)[C@@H](O)[C@H]1O,450 µM,–,–
Cc1c(O)c(O)cc[n+]1C1O[C@H](CO)[C@@H](O)[C@@H]1O (stereo partly drawn),–,inactive,–
Oc1cccnc1O,300 µM,–,–
Cc1c(O)c(=O)ccn1C1O[C@H](CO)[C@@H](O)[C@H]1O (stereo partly drawn),60 µM,–,–
CC(=O)OC[C@H]1O[C@@H](n2cccc(OC(C)=O)c2=O)[C@H](OC(C)=O)[C@@H]1OC(C)=O,–,inactive,–
Cc1nccc(O)c1O,110 µM,–,–
COc1c(C)n(C2O[C@H](CO)[C@@H](O)[C@H]2O)ccc1=O (stereo partly drawn),–,inactive,–
